In publication PMC7029851, “Antibacterial activity of novel dual bacterial DNA type II topoisomerase inhibitors” (PLoS ONE, 2020):
≈ marks a conversion by molar mass, not a printed value. Read-outs that look alike come from different tables or passages of the source.

What was measured:
[1] = system: S. aureus clinical isolates (n = 10); test: microbe, parasite or virus in culture; type: cell-based, Staphylococcus aureus; settings: for MIC50 / MIC90 / MIC range: S. aureus MDR clinical isolates (n = 10)
Method: (§1) The bacterial reference strains used in this study were purchased from ATCC (American Type Culture Collection) via LGC Standards (Middlesex, UK). […] Clinical MDR isolates were provided by Aptuit, the IHMA Europa Sàrl repository (Epalinges, Switzerland) and the Statens Serum Institute (Copenhagen, Denmark).
(§2) MICs were determined by the broth microdilution method (the agar dilution method was used only for N. gonorrhoeae) according to CLSI guidelines.
(§3) The results obtained using clinical isolates are reported as MIC50 and MIC90 values.

E. coli ATCC 25922 [2] = test: Minimal bactericidal concentration; type: cell-based, Escherichia coli; settings: for MBC: Escherichia coli, ATCC25922, ≥99.9% reduction of inoculum
Method: (§4) Minimal bactericidal concentrations (MBCs) were determined according to the procedure described by Knapp. Viable counts were performed after plates were incubated at 37°C for 24 hours. The MBC was defined as the lowest concentration that reduced the viability of the initial bacterial inoculum by ≥99.9%.

E. coli ATCC 25922 [3] = test: Post-antibiotic effect (PAE); type: cell-based, Escherichia coli; settings: 1× and 4× MIC
Method: (§5) A drug-free control was included in each experiment. After being exposed to the drug for 1 hour, viable counts were conducted in triplicate by spotting aliquots (10 μl) of suitable dilutions onto MHA plates. The drugs were removed by diluting the bacterial cultures (1:1000) in Cation-Adjusted Mueller-Hinton Broth (CAMHB; Sigma-Aldrich). The diluted cultures were incubated in a shaking bath at 37°C. To monitor the ongoing suppression of bacterial growth over time (5 hours), aliquots from each broth culture were periodically collected, diluted and plated to perform subsequent viable counts (in triplicate).

[4] = system: H. influenzae AcrA- mutant; test: microbe, parasite or virus in culture; type: cell-based; settings: Haemophilus influenzae
Summary of the method: (§6)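 MICs against efflux-deficient mutant strains were determined by broth microdilution following CLSI guidelines.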

[5] = system: K. pneumoniae AcrAB- mutant; test: microbe, parasite or virus in culture; type: cell-based; settings: Klebsiella pneumoniae
Summary of the method: as §6

E. coli ATCC 25922 [6] = test: Time-kill assay; type: cell-based, Escherichia coli; settings: 1× to 4× MIC, over 24 hours
Method: Time-kill experiments were performed according to the procedure reported by Knapp. […] A drug-free control was included in each experiment. The bacterial cultures were standardized to obtain an initial inoculum that ranged from 5×10^5 to 5×10^6 CFU/ml. The cultures were incubated at 37°C in a shaking bath. At 0, 2, 4, 8 and 24-hour intervals, viable counts were performed by spotting (in triplicate) 10 μl aliquots of suitable dilutions of the cultures onto Mueller-Hinton agar (MHA, Oxoid, Basingstoke, UK) plates. After incubation at 37°C for 24 hours, the bactericidal activity, namely, the ability to reduce the initial inoculum by 3 log10 CFU/ml, was assessed for each tested concentration over time.

A. baumannii ATCC 19606 = test: MIC, broth microdilution; type: cell-based; settings: Acinetobacter baumannii, ATCC19606; A. baumannii ATCC 19606, ciprofloxacin-susceptible
Method: as §2

A. baumannii APV00473 = test: MIC, broth microdilution; type: cell-based; settings: Acinetobacter baumannii; A. baumannii APV00473, ciprofloxacin-resistant
Method: as §2

E. coli 4SI = test: MIC, broth microdilution; type: cell-based; settings: Escherichia coli, ciprofloxacin-resistant
Method: as §2

S. pyogenes APV00074 = test: MIC, broth microdilution; type: cell-based; settings: Streptococcus pyogenes; S. pyogenes APV00074, ciprofloxacin-susceptible
Method: as §2

S. pyogenes APV00083 = test: MIC, broth microdilution; type: cell-based; settings: Streptococcus pyogenes; S. pyogenes APV00083, ciprofloxacin-susceptible
Method: as §2

[7] = system: S. aureus ATCC 29213 and S. aureus BAA-1720; test: MIC in the presence of 20% human serum
S. aureus ATCC 29213 [8] = test: Post-antibiotic effect (PAE); type: cell-based, Staphylococcus aureus; settings: 1-hour exposure, range over 1×, 4× and 16× MIC
Method: as §5

[9] = system: HepG2 mammalian cell line; test: Cytotoxicity assay (CellTiter-Blue); type: cell-based; settings: Homo sapiens, HepG2, 24 hours of incubation, read-out: IC50 mammalian cell viability
Method: Cytotoxicity assay. Cytotoxicity of compounds 1 and 2 was assessed, after 24 hours of incubation in EMEM containing 10% fetal bovine serum, HepG2 mammalian cell line viability was evaluated using CellTiter-Blue Cell Viability Assay (Promega, WI, USA) according to the manufacturer’s instructions. Concentration-response curves were obtained by non-linear regression analysis using the GraphPad PRISM 6 software.

[10] = system: C. difficile clinical isolates (n = 21); test: MIC, multidrug-resistant clinical isolates; type: cell-based, Clostridium difficile; settings: Clostridioides difficile, C. difficile clinical isolates (n = 21); for MIC50: read-out: MIC50; for MIC90: read-out: MIC90; for MIC: read-out: MIC range
Method: as §1, §2, §3

[11] = system: E. coli clinical isolates (n = 36); test: MIC, multidrug-resistant clinical isolates; type: cell-based, Escherichia coli; settings: Escherichia coli, E. coli MDR clinical isolates (n = 36); for MIC50: read-out: MIC50; for MIC90: read-out: MIC90
Method: as §1, §2, §3

hERG channel = target: T1, hERG channel (Homo sapiens, UniProt Q12809); test: hERG automated patch clamp assay; type: cell-based; settings: CHO-K1, read-out: IC50 against hERG channels
T1 construct: expressed in transfected cells; host or cells: CHO-K1
T1 sequence (Q12809 whole entry): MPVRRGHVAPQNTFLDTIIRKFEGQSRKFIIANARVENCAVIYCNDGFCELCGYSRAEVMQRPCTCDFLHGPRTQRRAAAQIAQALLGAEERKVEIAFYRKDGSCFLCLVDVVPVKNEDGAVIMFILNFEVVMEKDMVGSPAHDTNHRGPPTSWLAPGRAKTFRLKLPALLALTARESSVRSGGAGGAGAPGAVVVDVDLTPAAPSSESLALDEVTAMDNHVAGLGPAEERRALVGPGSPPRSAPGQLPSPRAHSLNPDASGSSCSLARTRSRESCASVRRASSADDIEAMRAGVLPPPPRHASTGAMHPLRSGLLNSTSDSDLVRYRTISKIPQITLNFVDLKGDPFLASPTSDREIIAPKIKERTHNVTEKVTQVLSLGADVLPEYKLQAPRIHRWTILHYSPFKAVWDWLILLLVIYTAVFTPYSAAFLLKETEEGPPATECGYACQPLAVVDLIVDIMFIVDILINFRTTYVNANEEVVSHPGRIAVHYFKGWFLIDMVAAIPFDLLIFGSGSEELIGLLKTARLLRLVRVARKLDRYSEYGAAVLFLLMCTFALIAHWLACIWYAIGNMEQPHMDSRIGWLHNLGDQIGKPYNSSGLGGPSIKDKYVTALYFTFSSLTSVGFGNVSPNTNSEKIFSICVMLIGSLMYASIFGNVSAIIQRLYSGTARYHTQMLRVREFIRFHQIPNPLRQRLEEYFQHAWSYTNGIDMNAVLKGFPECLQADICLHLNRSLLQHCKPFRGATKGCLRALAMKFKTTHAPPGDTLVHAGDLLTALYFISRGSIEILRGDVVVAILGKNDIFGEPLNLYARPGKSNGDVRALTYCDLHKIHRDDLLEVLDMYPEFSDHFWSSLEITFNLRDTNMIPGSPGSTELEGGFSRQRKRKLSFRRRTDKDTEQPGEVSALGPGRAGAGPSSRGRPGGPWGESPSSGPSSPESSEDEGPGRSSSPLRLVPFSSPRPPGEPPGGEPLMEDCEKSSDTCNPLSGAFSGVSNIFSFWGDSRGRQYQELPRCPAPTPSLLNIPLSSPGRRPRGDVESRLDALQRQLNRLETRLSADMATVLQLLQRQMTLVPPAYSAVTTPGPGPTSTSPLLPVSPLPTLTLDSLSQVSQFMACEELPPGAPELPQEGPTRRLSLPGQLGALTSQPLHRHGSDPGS
Excerpt: hERG automated patch clamp assay. The human recombinant ERG CHO-K1 cell line was used in an automated patch clamp assay (qPatch system) to evaluate the hERG channel blockade potential of compounds 1 and 2 [36]. Concentration (log) response curves were fitted to a logistic equation to generate estimates of the 50% inhibitory value.

S. aureus BAA-1720 = test: Minimal bactericidal concentration; type: cell-based, Staphylococcus aureus; settings: for MBC: Staphylococcus aureus, BAA1720, ≥99.9% reduction of inoculum
Method: as §4

S. aureus ATCC 29213 [12] = test: Minimal bactericidal concentration; type: cell-based, Staphylococcus aureus; settings: for MBC: Staphylococcus aureus, ATCC29213, ≥99.9% reduction of inoculum
Method: as §4

C. difficile ATCC 700057 = test: MIC, broth microdilution; type: cell-based, Clostridium difficile; settings: Clostridioides difficile, ATCC700057
Method: MICs were determined by the broth microdilution method (the agar dilution method was used only for N. gonorrhoeae) according to CLSI guidelines. […] The MIC values of antibiotics used in clinical practice were interpreted according to the susceptibility interpretive criteria reported in the appropriate CLSI Tables (M100-S25, CLSI, 2015).

[13] = Staphylococcus aureus, MRSA, S. aureus APV0063, MRSA
[14] = Staphylococcus aureus, MRSA, S. aureus APV0064, MRSA
[15] = Staphylococcus aureus, MRSA, S. aureus APV0065, MRSA
[16] = Staphylococcus aureus, S. aureus APV00045, M (macrolide resistance)
[17] = Staphylococcus aureus, S. aureus APV0048, MLSi
[18] = Staphylococcus aureus, S. aureus APV0049, MLSi
[19] = Staphylococcus aureus, S. aureus APV0052, MLSc
[20] = Staphylococcus aureus, S. aureus APV0053, MLSc
[21] = Staphylococcus aureus, S. aureus APV00280, M (macrolide resistance)
[22] = Staphylococcus aureus, S. aureus APV00281, M (macrolide resistance)
[23] = Staphylococcus aureus, read-out: MIC50
[24] = Staphylococcus aureus, read-out: MIC90

O=C1COc2ncc(F)cc2N1[C@H]1CC[C@H](NCc2cc3c(=O)oc4ccc(F)cc4c3[nH]2)CC1 [Compound 1, 8-fluoro-2-({[trans-4-(7-fluoro-2-oxo-2,3-dihydro-1H-pyrido[2,3-b][1,4]oxazin-1-yl)cyclohexyl]amino}methyl)[1]benzopyrano[4,3-b]pyrrol-4(1H)-one]
MIC50 [1]: 0.125 µg/mL (≈ 0.26 µM)
MIC90 [1]: 0.5 µg/mL (≈ 1.04 µM)
MIC range [1]: 0.12 to 0.5 µg/mL
MIC [1, 13]: 0.12 µg/mL (≈ 0.25 µM)
MIC [1, 14]: 0.12 µg/mL (≈ 0.25 µM)
MIC [1, 15]: 0.12 µg/mL (≈ 0.25 µM)
MIC [1, 16]: 0.5 µg/mL (≈ 1.04 µM)
MIC [1, 17]: 0.25 µg/mL (≈ 0.52 µM)
MIC [1, 18]: 0.5 µg/mL (≈ 1.04 µM)
MIC [1, 19]: 0.5 µg/mL (≈ 1.04 µM)
MIC [1, 20]: 0.25 µg/mL (≈ 0.52 µM)
MIC [1, 21]: 0.12 µg/mL (≈ 0.25 µM)
MIC [1, 22]: 0.12 µg/mL (≈ 0.25 µM)
MIC50 [1, 23]: 0.12 µg/mL (≈ 0.25 µM)
MIC90 [1, 24]: 0.5 µg/mL (≈ 1.04 µM)
MBC/MIC (E. coli ATCC 25922 [2]): 2
MBC (E. coli ATCC 25922 [2]): 1 µg/mL (≈ 2.08 µM)
PAE compared with ciprofloxacin (E. coli ATCC 25922 [3]): consistently higher
MIC [4]: ≤ 0.016 µg/mL
MIC [5]: 0.03 µg/mL (≈ 0.0624 µM)
Bactericidal activity in time-kill (reduction of 3 log10 CFU/ml) (E. coli ATCC 25922 [6]): bactericidal effect
MIC (A. baumannii ATCC 19606): ≤ 0.06 µg/mL
MIC (A. baumannii APV00473): ≤ 0.06 µg/mL
MIC (E. coli 4SI): 0.25 µg/mL (≈ 0.52 µM)
MIC (S. pyogenes APV00074): 0.5 µg/mL (≈ 1.04 µM)
MIC (S. pyogenes APV00083): 1 µg/mL (≈ 2.08 µM)
Change of MIC in the presence of 20% human serum [7]: two-fold increase
PAE (S. aureus ATCC 29213 [8]): 54 to 58 min
IC50 [9]: 9 µM
IC50 ([9]; same value in μg/ml): 4 µg/mL
MIC50 [10]: 1 µg/mL (≈ 2.08 µM)
MIC90 [10]: 1 µg/mL (≈ 2.08 µM)
MIC [10]: 0.25 to 2 µg/mL (≈ 0.52 to 4.16 µM)
MIC [11]: 0.25 to 16 µg/mL (≈ 0.52 to 33.3 µM)
MIC50 [11]: 1 µg/mL (≈ 2.08 µM)
MIC90 [11]: 1 µg/mL (≈ 2.08 µM)
IC50 (hERG channel): 8.9 µM
MBC/MIC (S. aureus BAA-1720): 2
MBC (S. aureus BAA-1720): 1 µg/mL (≈ 2.08 µM)
MBC/MIC (S. aureus ATCC 29213 [12]): 16
MBC (S. aureus ATCC 29213 [12]): 4 µg/mL (≈ 8.33 µM)
MIC (C. difficile ATCC 700057): 1 µg/mL (≈ 2.08 µM)

Cl.N#Cc1ccc2ccc(=O)n([C@H]3CC[C@H](NCc4cc5c(=O)oc6ccc(F)cc6c5[nH]4)CC3)c2c1 [Compound 2, 1-(trans-4-{[(8-fluoro-4-oxo-1,4-dihydro[1]benzopyrano[4,3-b]pyrrol-2-yl)methyl]amino}cyclohexyl)-2-oxo-1,2-dihydroquinoline-7-carbonitrile hydrochloride]
MIC50 [1]: ≤ 0.06 µg/mL
MIC90 [1]: ≤ 0.06 µg/mL
MIC range [1]: ≤0.06 µg/mL
MIC [1, 13]: ≤ 0.06 µg/mL
MIC [1, 14]: ≤ 0.06 µg/mL
MIC [1, 15]: ≤ 0.06 µg/mL
MIC [1, 16]: ≤ 0.06 µg/mL
MIC [1, 17]: ≤ 0.06 µg/mL
MIC [1, 18]: ≤ 0.06 µg/mL
MIC [1, 19]: ≤ 0.06 µg/mL
MIC [1, 20]: ≤ 0.06 µg/mL
MIC [1, 21]: ≤ 0.06 µg/mL
MIC [1, 22]: ≤ 0.06 µg/mL
MIC50 [1, 23]: ≤ 0.06 µg/mL
MIC90 [1, 24]: ≤ 0.06 µg/mL
MBC/MIC (E. coli ATCC 25922 [2]): 2
MBC (E. coli ATCC 25922 [2]): 1 µg/mL
PAE compared with ciprofloxacin (E. coli ATCC 25922 [3]): approximately two-fold greater
MIC [4]: ≤ 0.016 µg/mL
MIC [5]: ≤ 0.016 µg/mL
Bactericidal activity in time-kill (reduction of 3 log10 CFU/ml) (E. coli ATCC 25922 [6]): no bactericidal activity
MIC (A. baumannii ATCC 19606): 0.12 µg/mL
MIC (A. baumannii APV00473): 0.5 µg/mL
MIC (E. coli 4SI): 0.5 µg/mL
MIC (S. pyogenes APV00074): ≤ 0.06 µg/mL
MIC (S. pyogenes APV00083): ≤ 0.06 µg/mL
Change of MIC in the presence of 20% human serum [7]: not modified
PAE (S. aureus ATCC 29213 [8]): 73 to 78 min
IC50 [9]: > 300 µM
IC50 ([9]; same value in μg/ml): > 145 µg/mL
MIC50 [10]: 0.12 µg/mL
MIC90 [10]: 0.25 µg/mL
MIC [10]: 0.06 to 0.25 µg/mL
MIC [11]: 0.5 to 4 µg/mL
MIC50 [11]: 1 µg/mL
MIC90 [11]: 2 µg/mL
IC50 (hERG channel): > 100 µM
MBC/MIC (S. aureus BAA-1720): 125
MBC (S. aureus BAA-1720): 2 µg/mL
MBC/MIC (S. aureus BAA-1720; listed as compound 2): ≥ 16
MBC/MIC (S. aureus ATCC 29213 [12]): 16
MBC (S. aureus ATCC 29213 [12]): 0.5 µg/mL
MBC/MIC (S. aureus ATCC 29213 [12]; listed as compound 2): ≥ 16
MIC (C. difficile ATCC 700057): 0.25 µg/mL
